Source: the CheMixHub ionic liquid set
“And” between values parts separate entries of the source, which are not always exact repeats. Equal values may be shown once.

Assay: xn = mol fraction of the nth substance listed

CCC=C[n+]1ccn(C)c1C.O=[N+]([O-])c1cn[n-]c1 + COCCOCCOCCOCCOC
100 kPa
Conditions	viscosity [mPa·s]
278.15 K, x1 = 0.601	267
278.15 K, x1 = 0.952	4300
283.15 K, x1 = 0.9	1510
288.15 K, x1 = 0.9	864
288.15 K, x1 = 0.952	1210
293.15 K, x1 = 0.601	87
298.15 K, x1 = 0.701	121
298.15 K, x1 = 0.952	439
303.15 K, x1 = 0.801	138
313.15 K, x1 = 0.9	117
323.15 K, x1 = 0.952	81

CCCCCCCC[P+](CC)(CC)CC.Cc1ncc([N+](=O)[O-])[n-]1 + COCCOCCOCCOCCOC
viscosity [mPa·s], 100 kPa
Conditions	278.15 K	283.15 K	288.15 K	293.15 K	298.15 K	303.15 K	308.15 K	313.15 K	318.15 K	323.15 K
x2 = 0	3660	2240	1410	920	623	435	313	231	174	135
x2 = 0.036	2730	1700	1090	722	495	350	255	189	145	113
x2 = 0.067	1990	1270	829	559	390	280	206	155	120	95
x2 = 0.115	1470	955	636	438	310	227	170	130	101	81
x2 = 0.233	651	446	311	223	166	126	98	78	62	–
x2 = 0.3	375	262	187	137	103	80	64	51	–	–
x2 = 0.399	200	145	107	81	64	50	–	–	–	–
x2 = 0.5	113	86	66	51	–	–	–	–	–	–
x2 = 0.598	62	–	–	–	–	–	–	–	–	–

CCCCCC[n+]1ccn(C)c1C.O=S(=O)([N-]S(=O)(=O)C(F)(F)F)C(F)(F)F + COCCOCCOCCOCCOC
viscosity [mPa·s], 100 kPa
Conditions	293.15 K	298.15 K	308.15 K
x2 = 0	–	129	–
x2 = 0.102	135	103	64
x2 = 0.306	66	51	–

CCO + COP(=O)([O-])OC.C[N+]1(CCO)CCCC1
Conditions	viscosity [mPa·s]
298.15 K, 100 kPa, x2 = 0	1.08

CCO + COP(=O)([O-])OC.Cn1cc[n+](C)c1
100 kPa, x2 = 0
Conditions	viscosity [mPa·s]
298.15 K	1.08
308.15 K	0.89
328.15 K	0.646

CCO + CS(=O)(=O)[O-].C[N+](C)(CCO)CCO
101 kPa, x2 = 0
Conditions	viscosity [mPa·s]
298.15 K	1.102
303.15 K	1.002
308.15 K	0.915
313.15 K	0.837
318.15 K	0.768
323.15 K	0.706

CC(=O)[O-].CC[NH2+]CC + CS(C)=O
101 kPa
Conditions	electrical conductivity [S/m]	viscosity [mPa·s]
298.15 K, x1 = 0.0079	0.066	–
298.15 K, x1 = 0.0285	0.157	–
298.15 K, x1 = 0.0475	0.217	–
298.15 K, x1 = 0.0697	0.282	–
298.15 K, x1 = 0.0998	0.348	–
298.15 K, x1 = 0.1	–	2.99
298.15 K, x1 = 0.199	–	3.72
298.15 K, x1 = 0.1997	0.44	–
298.15 K, x1 = 0.299	–	5.59
298.15 K, x1 = 0.3011	0.492	–
298.15 K, x1 = 0.3994	0.531	–
298.15 K, x1 = 0.4	–	8.01
298.15 K, x1 = 0.5	–	11.94
298.15 K, x1 = 0.5008	0.459	–
298.15 K, x1 = 0.601	–	15.88
298.15 K, x1 = 0.6022	0.433	–
298.15 K, x1 = 0.682	–	21.1
298.15 K, x1 = 0.7005	0.394	–
298.15 K, x1 = 0.798	–	32.6
298.15 K, x1 = 0.8019	0.367	–
298.15 K, x1 = 0.899	–	44.2
298.15 K, x1 = 0.9017	0.335	–
298.15 K, x2 = 0.005	–	58.3
298.15 K, x2 = 0.2023	–	13.67
298.15 K, x2 = 0.2814	–	12.66
298.15 K, x2 = 0.5897	–	8.7
298.15 K, x2 = 0.66	–	7.71
298.15 K, x2 = 0.7851	–	5.81
298.15 K, x2 = 0.971	–	2.53
303.15 K, x2 = 0.0253	–	13.36
303.15 K, x2 = 0.7253	–	5.92
303.15 K, x2 = 0.8406	–	4.41
303.15 K, x2 = 0.9248	–	3.13
308.15 K, x2 = 0.1535	–	10.52
308.15 K, x2 = 0.2814	–	9.46

CC[n+]1ccn(C)c1.CO[PH](=O)[O-] + CS(C)=O
298.1 K, 100 kPa
Conditions	electrical conductivity
x1 = 0.006	0.01 S/m
x1 = 0.01	0.13 S/m
x1 = 0.017	0.37 S/m and 0.45 S/m
x1 = 0.025	0.51 S/m and 0.68 S/m
x1 = 0.044	0.79 S/m
x1 = 0.059	0.93 S/m
x1 = 0.078	1.05 S/m
x1 = 0.123	1.15 S/m
x1 = 0.188	1.19 S/m
x1 = 0.267	1.13 S/m
x1 = 0.335	1.03 S/m
x1 = 0.453	0.88 S/m
x1 = 0.585	0.75 S/m
x1 = 0.763	0.59 S/m
x1 = 1	0.44 S/m
